A word on the melting point: it is the temperature, or range, at which the solid turns liquid. By IC50 is commonly meant the concentration that inhibits the measured activity by half.

The source of these data is patent publication US8158633B2, “Phenyl-substituted pyrazolopyrimidines” (Boehringer Ingelheim International GmbH, priority 2002, dated 2012).

The target in data set [1] is T1, PDE9A (Homo sapiens, UniProt O76083). As to conditions: isolated enzyme, concentrations of up to 100 μM; cited from earlier work.
T1 sequence (O76083 whole entry): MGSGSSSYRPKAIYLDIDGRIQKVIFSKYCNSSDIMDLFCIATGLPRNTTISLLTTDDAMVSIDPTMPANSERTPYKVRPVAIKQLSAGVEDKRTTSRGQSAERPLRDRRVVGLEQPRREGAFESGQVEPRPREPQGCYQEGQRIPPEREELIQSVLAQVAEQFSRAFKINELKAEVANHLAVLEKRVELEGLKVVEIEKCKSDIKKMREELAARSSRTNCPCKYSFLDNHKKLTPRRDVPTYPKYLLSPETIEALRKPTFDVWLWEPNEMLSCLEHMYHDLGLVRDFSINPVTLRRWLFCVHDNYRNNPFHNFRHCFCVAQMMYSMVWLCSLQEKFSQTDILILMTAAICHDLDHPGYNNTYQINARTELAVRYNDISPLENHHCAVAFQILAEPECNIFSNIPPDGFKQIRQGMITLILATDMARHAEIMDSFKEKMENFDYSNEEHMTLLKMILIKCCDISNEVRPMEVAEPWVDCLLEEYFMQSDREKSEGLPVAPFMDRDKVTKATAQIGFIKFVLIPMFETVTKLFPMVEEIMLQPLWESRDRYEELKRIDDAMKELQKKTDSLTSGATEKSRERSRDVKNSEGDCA
For data set [2], the target named is T1, PDE9A. Put plainly: PDE inhibition: recombinant PDE9A, [3H]cGMP scintillation proximity assay. Details: made in house; host or cells: Sf9 cells, pFASTBAC baculovirus expression system. As to conditions: recombinant PDE9A expressed in Sf9 cells; read-out: IC50 (PDE9A-inhibiting effect). Format: biochemical. The text has this: Recombinant PDE1C (GenBank/EMBL Accession Number: NM_005020, Loughney et al. J. Biol. Chem. 1996 271, 796-806), PDE2A (GenBank/EMBL Accession Number: NM_002599, Rosman et al. Gene 1997 191, 89-95), PDE3B (GenBank/EMBL Accession Number: NM_000922, Miki et al. Genomics 1996, 36, 476-485), PDE4B (GenBank/EMBL Accession Number: NM_002600, Obernolte et al. Gene. 1993, 129, 239-247), PDE5A (GenBank/EMBL Accession Number: NM_001083, Loughney et al. Gene 1998, 216, 139-147), PDE7B (GenBank/EMBL Accession Number: NM_018945, Hetman et al. Proc. Natl. Acad. Sci. U.S.A. 2000, 97, 472-476), PDE8A (GenBank/EMBL Accession Number: AF—056490, Fisher et al. Biochem. Biophys. Res. Commun. 1998 246, 570-577), PDE9A (Fisher et al., J. Biol. Chem, 1998, 273 (25): 15559-15564), PDE10A (GenBank/EMBL Accession Number: NM_06661, Fujishige et al. J Biol Chem. 1999, 274, 18438-45), PDE11A (GenBank/EMBL Accession Number: NM_016953, Fawcett et al. Proc. Natl. Acad. Sci. 2000, 97, 3702-3707) were expressed in Sf9 cells with the aid of the pFASTBAC baculovirus expression system (GibcoBRL).
The test substances are dissolved in 100% DMSO and serially diluted to determine their in vitro effect on PDE 9A. Typically, serial dilutions from 200 μM to 1.6 μM are prepared (resulting final concentrations in the assay: 4 μM to 0.032 μM). 2 μL portions of the diluted substance solutions are introduced into the wells of microtiter plates (Isoplate; Wallac Inc., Atlanta, Ga.). Then 50 μL of a dilution of the PDE9A preparation described above are added. The dilution of the PDE9A preparation is chosen so that less than 70% of the substrate is converted during the subsequent incubation (typical dilution: 1:10000; dilution buffer: 50 mM Tris/HCl pH 7.5, 8.3 mM MgCl2, 1.7 mM EDTA, 0.2% BSA). The substrate, [8-^3H] guanosine 3′,5′-cyclic phosphate (1 μCi/μL; Amersham Pharmacia Biotech., Piscataway, N.J.) is diluted 1:2000 with assay buffer (50 mM Tris/HCl pH 7.5, 8.3 mM MgCl2, 1.7 mM EDTA) to a concentration of 0.0005 μCi/μL. The enzyme reaction is finally started by adding 50 μL (0.025 μCi) of the diluted substrate. The assay mixtures are incubated at room temperature for 60 min and the reaction is stopped by adding 25 μl of a PDE9A inhibitor (e.g. the inhibitor from preparation example 1, final concentration 10 μM) dissolved in assay buffer. Immediately thereafter, 25 μL of a suspension containing 18 mg/mL Yttrium Scintillation Proximity Beads (Amersham Pharmacia Biotech., Piscataway, N.J.) are added. The microtiter plates are sealed with a film and left to stand at room temperature for 60 min. The plates are then measured for 30 s per well in a Microbeta scintillation counter (Wallac Inc., Atlanta, Ga.). IC50 values are determined from the graphical plot of the substance concentration versus the percentage inhibition.

A further data set concerns the target T2, Murine PDE9A (Mus musculus, UniProt O70628).
T2 sequence (O70628 1-534): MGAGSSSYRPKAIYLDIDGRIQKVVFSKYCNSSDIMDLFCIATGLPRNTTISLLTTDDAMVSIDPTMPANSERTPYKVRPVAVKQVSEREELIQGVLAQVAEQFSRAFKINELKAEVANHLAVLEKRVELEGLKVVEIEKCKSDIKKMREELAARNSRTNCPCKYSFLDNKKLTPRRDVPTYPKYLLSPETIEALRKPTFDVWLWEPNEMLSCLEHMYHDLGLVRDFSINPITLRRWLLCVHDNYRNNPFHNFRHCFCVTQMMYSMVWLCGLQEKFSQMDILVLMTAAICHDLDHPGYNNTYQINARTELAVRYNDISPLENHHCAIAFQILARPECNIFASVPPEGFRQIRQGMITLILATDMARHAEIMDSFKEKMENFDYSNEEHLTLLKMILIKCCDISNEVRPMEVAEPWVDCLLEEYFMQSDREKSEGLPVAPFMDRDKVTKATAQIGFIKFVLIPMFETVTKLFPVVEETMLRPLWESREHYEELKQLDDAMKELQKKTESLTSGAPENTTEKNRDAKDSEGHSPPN
As to conditions: concentrations below 200 μM; cited from earlier work.

Take `COc1ccc(C2CNC(=O)C2)cc1OC1CCCC1` (stereo not drawn) [rolipram]: the “inhibition of human PDE9A” value at PDE9A [1] is reported as “no inhibition”.
Consider `OCCN(CCO)c1nc(N2CCCCC2)c2nc(N(CCO)CCO)nc(N3CCCCC3)c2n1` [dipyridamole], for which the “inhibition of human PDE9A” value on PDE9A [1] is “no inhibition”.
For the molecule `Cc1cccc(Cc2nc3c(cnn3C3CCCC3)c(=O)[nH]2)c1` [Example 8, 6-(3-Methylbenzyl)-1-cyclopentyl-1,5-dihydro-4H-pyrazolo[3,4-d]pyrimidin-4-one], the melting point worked out at 152 °C.
In the case of `CCC(CC)n1ncc2c(=O)[nH]c(Cc3cccc(C(F)(F)F)c3)nc21` [Example 11, 1-(1-Ethylpropyl)-6-[3-(trifluoromethyl)benzyl]-1,5-dihydro-4H-pyrazolo[3,4-d]-pyrimidin-4-one], the melting point was 120 °C.
On to `CCC(CC)n1ncc2c(=O)[nH]c(Cc3cc(Cl)ccc3Cl)nc21` [Example 9, 6-(2,5-Dichlorobenzyl)-1-(1-ethylpropyl)-1,5-dihydro-4H-pyrazolo[3,4-d]pyrimidin-4-one], for which the melting point is 134 °C.
Molecule `CCC(CC)n1ncc2c(=O)[nH]c(Cc3cccc(C)c3)nc21` [Example 10, 6-(3-Methylbenzyl)-1-(1-ethylpropyl)-1,5-dihydro-4H-pyrazolo[3,4-d]pyrimidin-4-one] displayed a melting point of 128 °C. The half-inhibitory concentration (IC50) on PDE9A [2] was 64 nM.
Take `O=c1[nH]c(Cc2cccc(Cl)c2)nc2c1cnn2C1CCCC1` [Example 1, 6-(3-Chlorobenzyl)-1-cyclopentyl-1,5-dihydro-4H-pyrazolo[3,4-d]pyrimidin-4-one]: the melting point stood at 159 °C. Besides, on PDE9A [2], the IC50 turned out to be 20 nM.
On to `CCC(CC)n1ncc2c(=O)[nH]c(Cc3cccc(Cl)c3)nc21` [Example 7, 6-(3-Chlorobenzyl)-1-(1-ethylpropyl)-1,5-dihydro-4H-pyrazolo[3,4-d]pyrimidin-4-one], for which the melting point amounted to 138 °C.
In turn, `O=c1[nH]c(Cc2cccc(Cl)c2Cl)nc2c1cnn2C1CCCC1` [Example 6, 6-(2,3-Dichlorobenzyl)-1-cyclopentyl-1,5-dihydro-4H-pyrazolo[3,4-d]pyrimidin-4-one] registered a melting point of 181 °C.
`O=c1[nH]c(Cc2cccc(Br)c2)nc2c1cnn2C1CCCC1` [Example 3, 6-(3-Bromobenzyl)-1-cyclopentyl-1,5-dihydro-4H-pyrazolo[3,4-d]pyrimidin-4-one] registered a melting point of 159 °C.
In turn, `O=c1[nH]c(Cc2ccc(Cl)c(Cl)c2)nc2c1cnn2C1CCCC1` [Example 4, 6-(3,4-Dichlorobenzyl)-1-cyclopentyl-1,5-dihydro-4H-pyrazolo[3,4-d]pyrimidin-4-one] had a melting point of 198 °C. The IC50 at PDE9A [2] was 30 nM.
Consider `CCOC(=O)C1=C[C@]2(CC)CCCN3CCc4c(n1c1ccccc41)[C@@H]32` [vinpocetine], for which the “inhibition of human PDE9A” value on PDE9A [1] is given as “no inhibition”.
For `CC(C)Cn1c(=O)n(C)c(=O)c2[nH]cnc21` [IBMX], the “inhibition of human PDE9A” value on PDE9A [1] is “no inhibition”. At Murine PDE9A, the “inhibition of murine PDE9A” value is recorded as “not inhibited”.
As to `O=c1[nH]c(Cc2ccccc2F)nc2c1cnn2C1CCCC1` [Example 2, 6-(2-Fluorobenzyl)-1-cyclopentyl-1,5-dihydro-4H-pyrazolo[3,4-d]pyrimidin-4-one], the melting point is 180 °C. The IC50 on PDE9A [2] turned out to be 30 nM.
Consider `O=c1[nH]c(Cc2cc(Cl)cc(Cl)c2)nc2c1cnn2C1CCCC1` [Example 5, 6-(3,5-Dichlorobenzyl)-1-cyclopentyl-1,5-dihydro-4H-pyrazolo[3,4-d]pyrimidin-4-one], for which the melting point stood at 177 °C.
Turning to `S=c1[nH]c(Cc2cccc(Cl)c2)nc2c1cnn2C1CCCC1` [Example 13, 6-(3-Chlorobenzyl)-1-cyclopentyl-1,5-dihydro-4H-pyrazolo[3,4-d]pyrimidine-4-thione], the melting point was 154 °C. The IC50 at PDE9A [2] turned out to be 30 nM.
Regarding `CC(=O)Nc1ccc(-c2c[nH]c(=O)cn2)cc1` [SKF94120], on PDE9A [1], the “inhibition of human PDE9A” value is given as “no inhibition”.
`O=c1[nH]c(Cc2ccccc2OC(F)(F)F)nc2c1cnn2C1CCCC1` [Example 14, 1-Cyclopentyl-6-[2-(trifluoromethoxy)benzyl]-1,5-dihydro-4H-pyrazolo[3,4-d]-pyrimidin-4-one] had a melting point of 161 °C.
